The numbers were not newly measured in patent publication US6642179B2, “Inhibition of vegetative growth” (priority 2000, dated 2003), which cites them from elsewhere.

The data set has as its system grass. Conditions: versus 5-acetamido-2-methyltrifluoromethanesulfonanilide.

`CC(=O)Nc1cc(NS(=O)(=O)C(F)(F)F)c(C)cc1C` [5-acetamido-2,4-dimethyltrifluoromethanesulfonanilide]: the “effectiveness as grass growth regulator compared with 5-acetamido-2-methyltrifluoromethanesulfonanilide” value is recorded as “much more effective grass growth regulator”.
